Measurements from patent US20260193268A1, “TRICYCLIC PI3Ka INHIBITOR, PREPARATION METHOD THEREFOR, AND PHARMACEUTICAL USE THEREOF” (WIGEN BIOMEDICINE TECHNOLOGY (SHANGHAI) CO., LTD., priority 2022, published 2026).
Read-outs that look alike come from different tables or passages of the source. Each block holds one compound with its values, some of them ahead of it.

Experiments:
[1] = test system: HCC1954 cells (with PI3Kα H1047R mutation); test: In vitro inhibition of HCC1954 cell proliferation (CellTiter-Lumi); format: cell-based; details: Homo sapiens, HCC1954, 144 h
Procedure: Assay for In Vitro Inhibition of HCC1954 Cell Proliferation by Compounds of the Present Disclosure
The growth of the cells was evaluated, and the IC50 for the inhibition of cell growth by the compounds was calculated.

[2] = test system: MCF-7 cells (with PI3Kα E545K mutation); test: In vitro inhibition of MCF-7 cell proliferation (CellTiter-Lumi); format: cell-based; details: Homo sapiens, MCF7, 144 h
Summary of the method: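 Growth IC50 derived from ATP luminescence (CellTiter-Lumi) after 144 h exposure of MCF-7 cells carrying PI3Kα E545K, plated 2000 cells/well and dosed with serial dilutions one day after seeding.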

[3] = HCC1954 cells, 144 h, CellTiter-Lumi, numeric values, read-out: Inhibitory activity against HCC1954 cells (IC50)
[4] = numeric values, read-out: Inhibitory activity against MCF-7 cells (IC50)
[5] = HCC1954 cells, 144 h, CellTiter-Lumi, class symbols, read-out: Inhibitory activity against HCC1954 cells (IC50), class symbols
[6] = class symbols, read-out: Inhibitory activity against MCF-7 cells (IC50), class symbols

- IC50 [1, 5]: < 50 nM
- IC50 [2, 6]: < 50 nM
SMILES: N#CC(=CC1CCCN1)C(=O)Nc1ccc(N2CC(N3CCN(c4ccc5c(c4)-c4nc(N6C(=O)OC[C@H]6C(F)F)cn4CCO5)CC3)C2)cc1 (some centres unmarked) [Compound 214]

- IC50 [1, 5]: < 50 nM
- IC50 [2, 6]: < 50 nM
SMILES: CN(C)C/C=C/C(=O)Nc1ncc(N2CC(N3CCN(c4ccc5c(c4)-c4nc(N6C(=O)OC[C@H]6C(F)F)cn4CCO5)CC3)C2)cn1 [Compound 286]

- IC50 [1, 5]: < 50 nM
- IC50 [2, 6]: < 50 nM
SMILES: CC1(C=C(C#N)C(=O)Nc2cnc(N3CC(N4CCN(c5ccc6c(c5)-c5nc(N7C(=O)OC[C@H]7C(F)F)cn5CCO6)CC4)C3)nc2)COC1 [Compound 269]

- IC50 [1, 5]: < 50 nM
- IC50 [2, 6]: < 50 nM
SMILES: CC(C)(C)C=C(C#N)C(=O)Nc1ccc(N2CC(N3CCN(c4ccc5c(c4)-c4nc(N6C(=O)OC[C@H]6C(F)F)c(F)n4CCO5)CC3)C2)cc1 [Compound 321]

- IC50 [1, 5]: < 50 nM
- IC50 [2, 6]: < 50 nM
SMILES: CC(=O)N1CCN(C(C)(C)C=C(C#N)C(=O)Nc2ccc(N3CC(N4CCN(c5ccc6c(c5)-c5nc(N7C(=O)OC[C@H]7C(F)F)cn5CCO6)CC4)C3)cc2)CC1 [Compound 310]

- IC50 [1, 5]: < 50 nM
- IC50 [2, 6]: < 50 nM
SMILES: CC1CN(C(C)(C)C=C(C#N)C(=O)Nc2ccc(N3CC(N4CCN(c5ccc6c(c5)-c5nc(N7C(=O)OC[C@H]7C(F)F)cn5CCO6)CC4)C3)cc2)CC(C)N1 (some centres unmarked) [Compound 309]

- IC50 [1, 5]: < 50 nM
- IC50 [2, 6]: < 50 nM
SMILES: N#CC(=CC1(N)CC1)C(=O)Nc1ccc(N2CC(N3CCN(c4ccc5c(c4)-c4nc(N6C(=O)OC[C@H]6C(F)F)cn4CCO5)CC3)C2)nc1 [Compound 253]

- IC50 [1, 5]: < 50 nM
- IC50 [2, 6]: < 50 nM
SMILES: COCCNC(C)(C)C=C(C#N)C(=O)Nc1ccc(N2CC(N3CCN(c4ccc5c(c4)-c4nc(N6C(=O)OC[C@H]6C(F)F)cn4CCO5)CC3)C2)c(F)c1 [Compound 232]

- IC50 [1, 5]: < 50 nM
- IC50 [2, 6]: < 50 nM
SMILES: CN(C1COC1)C(C)(C)C=C(C#N)C(=O)Nc1ccc(N2CC(N3CCN(c4ccc5c(c4)-c4nc(N6C(=O)OC[C@H]6C(F)F)cn4CCO5)CC3)C2)nc1 [Compound 238]

- IC50 [1, 5]: 50 to 100 nM
- IC50 [2, 6]: < 50 nM
SMILES: C=CC(=O)Nc1ccc(N2CC(C#Cc3ccc4c(c3)-c3nc(N5C(=O)OC[C@H]5C(F)F)cn3CCO4)C2)cc1 [Compound 203]

- IC50 [1, 5]: < 50 nM
- IC50 [2, 6]: < 50 nM
SMILES: N#CC(=CC1CCCC1)C(=O)Nc1ccc(N2CC(N3CCN(c4ccc5c(c4)-c4nc(N6C(=O)OC[C@H]6C(F)F)cn4CCO5)CC3)C2)cc1 [Compound 393]

- IC50 [1, 5]: < 50 nM
- IC50 [2, 6]: < 50 nM
SMILES: COC(C)(C)C=C(C#N)C(=O)Nc1ccc(N2CC(N3CCN(c4ccc5c(c4)-c4nc(N6C(=O)OC[C@H]6C(F)F)cn4CCO5)CC3)C2)cc1 [Compound 212]

- IC50 [1, 5]: < 50 nM
- IC50 [2, 6]: < 50 nM
SMILES: Cc1nc(-c2cn3c(n2)-c2cc(N4CCN(C5CN(c6ccc(NC(=O)C(C#N)=CC(C)(C)N)cc6)C5)CC4)ccc2OCC3)n(C(C)C)n1 [Compound 336]

- IC50 [1, 5]: < 50 nM
- IC50 [2, 6]: < 50 nM
SMILES: CC(C)(N)C=C(C#N)C(=O)Nc1ccc(N2CC(N3CCN(c4ccc5c(c4)-c4nc(N6C(=O)OC[C@H]6C(F)F)cn4CCO5)CC3)C2)cc1Cl [Compound 360]

- IC50 [1, 5]: < 50 nM
- IC50 [2, 6]: < 50 nM
SMILES: C=CC(=O)Nc1ccc(N2CC(N3CCN(c4ccc5c(c4)-c4nc(N6C(=O)OC[C@H]6C(F)(F)F)cn4CCO5)CC3)C2)cc1 [Compound 277]

- IC50 [1, 5]: < 50 nM
- IC50 [2, 6]: < 50 nM
SMILES: CN(C)C/C=C/C(=O)Nc1cnc(N2CC(N3CCN(c4ccc5c(c4)-c4nc(N6C(=O)OC[C@H]6C(F)F)cn4CCO5)CC3)C2)nc1 [Compound 288]

- IC50 [1, 3]: 42 nM
- IC50 [2, 4]: 16 nM
SMILES: N#CC(=CC1CC1)C(=O)Nc1ccc(N2CC(N3CCN(c4ccc5c(c4)-c4nc(N6C(=O)OC[C@H]6C(F)F)cn4CCO5)CC3)C2)cc1 [Compound 278]

- IC50 [1, 5]: < 50 nM
- IC50 [2, 6]: < 50 nM
SMILES: CC=C(C#N)C(=O)Nc1ccc(N2CC(N3CCN(c4ccc5c(c4)-c4nc(N6C(=O)OC[C@H]6C(F)F)cn4CCO5)CC3)C2)nc1 [Compound 254]

- IC50 [1, 5]: < 50 nM
- IC50 [2, 6]: < 50 nM
SMILES: C=CC(=O)Nc1ccc(N2CC(N3CCN(c4ccc5c(c4)-c4nc(-c6nc(C)nn6C(C)C)cn4CCO5)CC3)C2)cc1Cl [Compound 377]

- IC50 [1, 5]: < 50 nM
- IC50 [2, 6]: < 50 nM
SMILES: CC(C)(C=C(C#N)C(=O)Nc1ccc(N2CC(N3CCN(c4ccc5c(c4)-c4nc(N6C(=O)OC[C@H]6C(F)F)cn4CCO5)CC3)C2)c(F)c1)N1CC2(COC2)C1 [Compound 228]

- IC50 [1, 5]: < 50 nM
- IC50 [2, 6]: < 50 nM
SMILES: Cc1nc(-c2cn3c(n2)-c2cc(N4CCN(C5CN(c6ccc(NC(=O)C(C#N)=CC(C)(C)C)cc6)C5)CC4)ccc2OCC3)n(C(C)C)n1 [Compound 340]

The remaining lines, values behind:

SMILES: C=CC(=O)Nc1ccc(CN2C[C@@H]3CN(c4ccc5c(c4)-c4nc(N6C(=O)OC[C@H]6C(F)F)cn4CCO5)C[C@@H]3C2)cc1 [Compound 41]
- IC50 [1, 3]: 191 nM
- IC50 [2, 4]: 40 nM

SMILES: C=CC(=O)Nc1cnc(N2CC(N3CCN(c4ccc5c(c4)-c4nc(N6C(=O)OC[C@H]6C(F)F)cn4CCO5)CC3)C2)nc1 [Compound 133]
- IC50 [1, 3]: 4.3 nM
- IC50 [2, 4]: 0.4 nM

SMILES: C=CC(=O)N1CC(C(=O)N2CC3(CCN(c4ccc5c(c4)-c4nc(N6C(=O)OC[C@H]6C(F)F)cn4CCO5)CC3)C2)C1 [Compound 86]
- IC50 [1, 3]: 126 nM
- IC50 [2, 4]: 17 nM

SMILES: C=CC(=O)Nc1ccc(N2CC(N3CCN(c4cc5c(cc4F)OCCn4cc(N6C(=O)OC[C@H]6C(F)F)nc4-5)CC3)C2)cc1 [Compound 102]
- IC50 [1, 3]: 232 nM
- IC50 [2, 4]: 23 nM

SMILES: C=CC(=O)Nc1ccc(CN2CC3(CCN(c4ccc5c(c4)-c4nc(N6C(=O)OC[C@H]6C(F)F)cn4CCO5)CC3)C2)cc1 [Compound 43]
- IC50 [1, 3]: 184 nM
- IC50 [2, 4]: 19 nM

SMILES: C=CC(=O)N1CC(C2CCN(c3ccc(-c4ccc5c(c4)-c4nc(N6C(=O)OC[C@H]6C(F)F)cn4CCO5)cc3)CC2)C1 [Compound 199]
- IC50 [1, 5]: 100 to 1000 nM
- IC50 [2, 6]: < 50 nM

SMILES: C=CC(=O)Nc1ccc(N2CC(N3CCC4(c5ccc6c(c5)-c5nc(N7C(=O)OC[C@H]7C(F)F)cn5CCO6)CC4C3)C2)cc1 (some centres unmarked) [Compound 107]
- IC50 ([1]; read-out: Inhibitory activity against HCC1954 cells (IC50)): 131 nM
- IC50 [2, 4]: 16 nM

SMILES: CC(C)(N)C=C(C#N)C(=O)Nc1ccc(N2CC(N3CCN(c4ccc5c(c4)-c4nc(N6C(=O)OC[C@H]6C(F)F)cn4CCO5)CC3)C2)cc1 [Compound 137]
- IC50 [1, 3]: 0.6 nM
- IC50 [2, 4]: 0.1 nM

SMILES: COCC#CC(=O)Nc1ccc(N2CC(N3CCN(c4ccc5c(c4)-c4nc(N6C(=O)OC[C@H]6C(F)F)cn4CCO5)CC3)C2)cc1 [Compound 168]
- IC50 [1, 3]: 4.9 nM
- IC50 [2, 4]: 6.9 nM

SMILES: CC(C)=CC(=O)CCCCC(=O)N1CCN(c2ccc3c(c2)-c2nc(N4C(=O)OC[C@H]4C(F)F)cn2CCO3)CC1 [Compound 158]
- IC50 [1, 3]: 249 nM
- IC50 [2, 4]: 321 nM

SMILES: C=CC(=O)N1CC[C@@H](CN2CC3(CCN(c4ccc5c(c4)-c4nc(N6C(=O)OC[C@H]6C(F)F)cn4CCO5)CC3)C2)C1 [Compound 23]
- IC50 [1, 3]: > 1000 nM
- IC50 [2, 4]: 186 nM

SMILES: CC(C)=CC(=O)CCCC(=O)N1CCN(Cc2ccc3c(c2)-c2nc(N4C(=O)OC[C@H]4C(F)F)cn2CCO3)CC1 [Compound 190]
- IC50 [1, 5]: 50 to 100 nM
- IC50 [2, 6]: < 50 nM

SMILES: CC(C)=CC(=O)CCC(=O)N1CCN(Cc2ccc3c(c2)-c2nc(N4C(=O)OC[C@H]4C(F)F)cn2CCO3)CC1 [Compound 192]
- IC50 [1, 5]: 50 to 100 nM
- IC50 [2, 6]: < 50 nM

SMILES: C=C(F)C(=O)Nc1ccc(N2CC(CN3CCN(c4ccc5c(c4)-c4nc(N6C(=O)OC[C@H]6C(F)F)cn4CCO5)CC3)C2)cc1 [Compound 46]
- IC50 [1, 3]: 306 nM
- IC50 [2, 4]: 74 nM

SMILES: CCOP(=O)(OCC)OCOC(C)(C)C=C(C#N)C(=O)Nc1ccc(N2CC(N3CCN(c4ccc5c(c4)-c4nc(N6C(=O)OC[C@H]6C(F)F)cn4CCO5)CC3)C2)cc1 [Compound 341]
- IC50 ([1]; read-out: Inhibitory activity against HCC1954 cells (IC50), class symbols): < 50 nM
- IC50 [2, 6]: < 50 nM

SMILES: C=CC(=O)Nc1ccc(N2CCC3(CCN(c4ccc5c(c4)-c4nc(N6C(=O)OC[C@H]6C(F)F)cn4CCO5)CC3)C2)cc1 [Compound 94]
- IC50 [1, 3]: 300 nM
- IC50 [2, 4]: 76 nM

SMILES: C=CC(=O)N1CC[C@@H](C(=O)N2CC3(CCN(c4ccc5c(c4)-c4nc(N6C(=O)OC[C@H]6C(F)F)cn4CCO5)CC3)C2)C1 [Compound 21]
- IC50 [1, 3]: 251 nM
- IC50 [2, 4]: 23 nM

SMILES: C=CC(=O)Nc1ccc(CN2CC(N3CCN(c4ccc5c(c4)-c4nc(N6C(=O)OC[C@H]6C(F)F)cn4CCO5)CC3)C2)cc1 [Compound 39]
- IC50 [1, 3]: 68 nM
- IC50 [2, 4]: 11 nM

SMILES: C=CC(=O)Nc1ccc(C2CN(c3ccc(-c4ccc5c(c4)-c4nc(N6C(=O)OC[C@H]6C(F)F)cn4CCO5)cc3)C2)cc1 [Compound 181]
- IC50 [1, 5]: 50 to 100 nM
- IC50 [2, 6]: < 50 nM
